The results in this text go back to US8895504B2, “Amylin derivatives” (priority 2008, dated 2014).

*1 amine or outer side, *2 acyl side, *3 side chain or, on linkers, in order; H or OH if unused. Where a SMILES comes first, the peptide text is derived from it. Bridges are numbered along the chain shown (N, C = ends). The star is where a group is joined. C20 diacid = O=C(O)CCCCCCCCCCCCCCCCCCC(=O)*; C18 diacid = O=C(O)CCCCCCCCCCCCCCCCC(=O)*; γGlu = O=C(O)[C@H](CCC(=O)[*:2])N[*:1]; Adipoyl = O=C(CCCCC(=O)[*:2])[*:1]; AEEA = NCCOCCOCC(=O)O

The experiment deals with T1, Amylin 3(a) receptor (human calcitonin receptor (CTa) and RAMP-3) (Homo sapiens, UniProt O60896+P30988).
T1 construct: expressed in transfected cells; host or cells: BHK570 cells, stably transfected with a CRE-luciferase reporter
T1 sequence (O60896 24-148): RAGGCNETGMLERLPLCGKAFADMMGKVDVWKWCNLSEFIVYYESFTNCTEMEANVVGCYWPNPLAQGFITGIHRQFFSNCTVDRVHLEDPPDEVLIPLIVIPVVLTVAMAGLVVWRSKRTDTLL
T1 sequence (P30988 25-474): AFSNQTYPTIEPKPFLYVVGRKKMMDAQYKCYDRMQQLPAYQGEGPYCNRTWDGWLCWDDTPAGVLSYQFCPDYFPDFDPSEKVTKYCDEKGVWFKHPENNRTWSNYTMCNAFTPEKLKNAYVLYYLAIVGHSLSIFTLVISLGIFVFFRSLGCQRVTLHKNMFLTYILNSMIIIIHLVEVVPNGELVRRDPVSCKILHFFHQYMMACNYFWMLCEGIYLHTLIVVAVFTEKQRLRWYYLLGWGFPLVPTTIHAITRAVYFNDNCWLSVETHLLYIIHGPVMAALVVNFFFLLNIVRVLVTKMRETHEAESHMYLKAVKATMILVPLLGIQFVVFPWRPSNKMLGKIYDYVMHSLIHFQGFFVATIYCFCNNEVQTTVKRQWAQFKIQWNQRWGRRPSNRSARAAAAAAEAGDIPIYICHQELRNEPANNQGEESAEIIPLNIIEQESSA
The experiment is described as follows: Luciferase assay (III), BHK Amylin 3(a)//CRE-luc cells. Format: cell-based. As to conditions: BHK cells with Amylin 3(a) receptor and CRE luciferase reporter, 4 hours incubation; read-out: Potency Luciferase. The gist of the method: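 BHK570 cells stably expressing CTa, RAMP-3 and a CRE-luciferase reporter, seeded at about 20,000 cells/well and grown overnight. Cells were exposed to standard or sample for 4 h at 37° C in phenol red-free DMEM with 10% FBS and 10 mM Hepes, pH 7,4. Luminescence was read after 30 min LucLite at room temperature.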
In general terms: In a reporter assay the amount or activity of a reporter protein is the signal.

On to `CC[C@H](C)[C@H](NC(=O)[C@@H]1CCCN1C(=O)CNC(=O)[C@H](Cc1ccccc1)NC(=O)[C@H](CC(N)=O)NC(=O)[C@H](CC(N)=O)NC(=O)[C@H](CO)NC(=O)[C@H](CO)NC(=O)[C@H](Cc1c[nH]cn1)NC(=O)[C@H](Cc1c[nH]cn1)NC(=O)[C@H](CC(C)C)NC(=O)[C@H](Cc1ccccc1)NC(=O)[C@H](CC(N)=O)NC(=O)[C@H](C)NC(=O)[C@H](CC(C)C)NC(=O)[C@H](CCCNC(=N)N)NC(=O)[C@H](CCC(N)=O)NC(=O)[C@@H](NC(=O)[C@H](C)NC(=O)[C@@H]1CSSC[C@H](NC(=O)CC[C@H](NC(=O)CCCCCCCCCCCCCCCCCCC(=O)O)C(=O)O)C(=O)N[C@@H](CC(N)=O)C(=O)N[C@@H]([C@@H](C)O)C(=O)N[C@@H](C)C(=O)N[C@@H]([C@@H](C)O)C(=O)N1)[C@@H](C)O)C(=O)N[C@@H](CC(C)C)C(=O)N1CCC[C@H]1C(=O)N1CCC[C@H]1C(=O)N[C@H](C(=O)N[C@@H](CC(=O)O)C(=O)N[C@H](C(=O)NCC(=O)N[C@@H](CO)C(=O)N[C@@H](CC(N)=O)C(=O)N[C@H](C(=O)N[C@@H](Cc1ccc(O)cc1)C(N)=O)[C@@H](C)O)C(C)C)[C@@H](C)O` [Example 53, N-alpha-[(S)-4-Carboxy-4-(19-carboxynonadecanoylamino)butyryl]-[His17,Asp31]-pramlintide (2-37)] ({C20 diacid-γGlu}-CNTATCATQRLANFLHHSSNNFGPILPPTDVGSNTY-NH2; disulfide 1-6), for which the EC50 was found to be 0.06 nM.

With `CC[C@H](C)[C@H](NC(=O)[C@@H]1CCCN1C(=O)CNC(=O)[C@H](Cc1ccccc1)NC(=O)[C@H](CC(N)=O)NC(=O)[C@H](CC(N)=O)NC(=O)[C@H](CO)NC(=O)[C@H](CO)NC(=O)[C@H](Cc1c[nH]cn1)NC(=O)[C@H](CCCNC(=N)N)NC(=O)[C@H](CC(C)C)NC(=O)[C@H](Cc1ccccc1)NC(=O)[C@H](CC(N)=O)NC(=O)[C@H](C)NC(=O)[C@H](CC(C)C)NC(=O)[C@H](CCCNC(=N)N)NC(=O)[C@H](CCC(N)=O)NC(=O)[C@@H](NC(=O)[C@H](C)NC(=O)[C@@H]1CSSC[C@H](NC(=O)[C@H](CCCNC(=N)N)NC(=O)[C@H](Cc2c[nH]cn2)NC(=O)[C@H](Cc2c[nH]cn2)NC(=O)COCCOCCNC(=O)CC[C@H](NC(=O)CCCCCCCCCCCCCCCCCCC(=O)O)C(=O)O)C(=O)N[C@@H](CC(N)=O)C(=O)N[C@@H]([C@@H](C)O)C(=O)N[C@@H](C)C(=O)N[C@@H]([C@@H](C)O)C(=O)N1)[C@@H](C)O)C(=O)N[C@@H](CC(C)C)C(=O)N1CCC[C@H]1C(=O)N1CCC[C@H]1C(=O)N[C@H](C(=O)N[C@@H](CC(N)=O)C(=O)N[C@H](C(=O)NCC(=O)N[C@@H](CO)C(=O)N[C@@H](CC(N)=O)C(=O)N[C@H](C(=O)N[C@@H](Cc1ccc(O)cc1)C(N)=O)[C@@H](C)O)C(C)C)[C@@H](C)O` [Example 57, N-alpha-[2-(2-{2-[4-(S)-Carboxy-4-(19-carboxynonadecanoylamino)butyrylamino]ethoxy}ethoxy)acetyl]-His-His-[Arg1,Arg17]-pramlintide] ({C20 diacid-γGlu-AEEA}-HHRCNTATCATQRLANFLRHSSNNFGPILPPTNVGSNTY-NH2; disulfide 4-9), the EC50 is 0.3 nM. Turning to `CC[C@H](C)[C@H](NC(=O)[C@@H]1CCCN1C(=O)CNC(=O)[C@H](Cc1ccccc1)NC(=O)[C@H](CC(N)=O)NC(=O)[C@H](CC(N)=O)NC(=O)[C@H](CO)NC(=O)[C@H](CO)NC(=O)[C@H](Cc1c[nH]cn1)NC(=O)[C@H](CCCNC(=N)N)NC(=O)[C@H](CC(C)C)NC(=O)[C@H](Cc1ccccc1)NC(=O)[C@H](CC(N)=O)NC(=O)[C@H](C)NC(=O)[C@H](CC(C)C)NC(=O)[C@H](CCCNC(=N)N)NC(=O)[C@H](CCC(N)=O)NC(=O)[C@@H](NC(=O)[C@H](C)NC(=O)[C@@H]1CSSC[C@H](NC(=O)[C@H](CCCNC(=N)N)NC(=O)[C@H](Cc2c[nH]cn2)NC(=O)[C@H](Cc2c[nH]cn2)NC(=O)[C@H](CCC(=O)O)NC(=O)CC[C@H](NC(=O)CCCCCCCCCCCCCCCCCCC(=O)O)C(=O)O)C(=O)N[C@@H](CC(N)=O)C(=O)N[C@@H]([C@@H](C)O)C(=O)N[C@@H](C)C(=O)N[C@@H]([C@@H](C)O)C(=O)N1)[C@@H](C)O)C(=O)N[C@@H](CC(C)C)C(=O)N1CCC[C@H]1C(=O)N1CCC[C@H]1C(=O)N[C@H](C(=O)N[C@@H](CC(N)=O)C(=O)N[C@H](C(=O)NCC(=O)N[C@@H](CO)C(=O)N[C@@H](CC(N)=O)C(=O)N[C@H](C(=O)N[C@@H](Cc1ccc(O)cc1)C(N)=O)[C@@H](C)O)C(C)C)[C@@H](C)O` [Example 58, N-alpha-[(S)-4-Carboxy-4-(19-carboxynonadecanoylamino)butyryl]-Glu-His-His-[Arg1,Arg17]-pramlintide] ({C20 diacid-γGlu}-EHHRCNTATCATQRLANFLRHSSNNFGPILPPTNVGSNTY-NH2; disulfide 5-10), the EC50 turned out to be 0.2 nM.

For `CC[C@H](C)[C@H](NC(=O)[C@@H]1CCCN1C(=O)CNC(=O)[C@H](Cc1ccccc1)NC(=O)[C@H](CC(N)=O)NC(=O)[C@H](CCC(N)=O)NC(=O)[C@H](CO)NC(=O)[C@H](CO)NC(=O)[C@H](Cc1c[nH]cn1)NC(=O)[C@H](Cc1c[nH]cn1)NC(=O)[C@H](CC(C)C)NC(=O)[C@H](Cc1ccccc1)NC(=O)[C@H](CC(N)=O)NC(=O)[C@H](C)NC(=O)[C@H](CC(C)C)NC(=O)[C@H](CCCNC(=N)N)NC(=O)[C@H](CCC(N)=O)NC(=O)[C@@H](NC(=O)[C@H](C)NC(=O)[C@@H]1CSSC[C@H](NC(=O)[C@H](CCCNC(=N)N)NC(=O)[C@H](Cc2c[nH]cn2)NC(=O)[C@H](Cc2c[nH]cn2)NC(=O)COCCOCCNC(=O)CC[C@H](NC(=O)CCCCCCCCCCCCCCCCCCC(=O)O)C(=O)O)C(=O)N[C@@H](CC(N)=O)C(=O)N[C@@H]([C@@H](C)O)C(=O)N[C@@H](C)C(=O)N[C@@H]([C@@H](C)O)C(=O)N1)[C@@H](C)O)C(=O)N[C@@H](CC(C)C)C(=O)N1CCC[C@H]1C(=O)N1CCC[C@H]1C(=O)N[C@H](C(=O)N[C@@H](CC(N)=O)C(=O)N[C@H](C(=O)NCC(=O)N[C@@H](CO)C(=O)N[C@@H](CC(N)=O)C(=O)N[C@H](C(=O)N[C@@H](Cc1ccc(O)cc1)C(N)=O)[C@@H](C)O)C(C)C)[C@@H](C)O` [Example 59, N-alpha-[2-(2-{2-[4-(S)-Carboxy-4-(19-carboxynonadecanoylamino)butyrylamino]ethoxy}ethoxy)acetyl]-His-His-[Arg1His17,Gln21]-pramlintide] ({C20 diacid-γGlu-AEEA}-HHRCNTATCATQRLANFLHHSSQNFGPILPPTNVGSNTY-NH2; disulfide 4-9), the EC50 is 0.06 nM. For the compound `CC[C@H](C)[C@H](NC(=O)[C@@H]1CCCN1C(=O)CNC(=O)[C@H](Cc1ccccc1)NC(=O)[C@H](CC(N)=O)NC(=O)[C@H](CC(N)=O)NC(=O)[C@H](CO)NC(=O)[C@H](CO)NC(=O)[C@H](Cc1c[nH]cn1)NC(=O)[C@H](Cc1c[nH]cn1)NC(=O)[C@H](CC(C)C)NC(=O)[C@H](Cc1ccccc1)NC(=O)[C@H](CC(N)=O)NC(=O)[C@H](C)NC(=O)[C@H](CC(C)C)NC(=O)[C@H](CCCNC(=N)N)NC(=O)[C@H](CCC(N)=O)NC(=O)[C@@H](NC(=O)[C@H](C)NC(=O)[C@@H]1CSSC[C@H](NC(=O)[C@H](Cc2c[nH]cn2)NC(=O)[C@H](Cc2c[nH]cn2)NC(=O)[C@H](Cc2c[nH]cn2)NC(=O)CC[C@H](NC(=O)CCCCCCCCCCCCCCCCC(=O)O)C(=O)O)C(=O)N[C@@H](CC(N)=O)C(=O)N[C@@H]([C@@H](C)O)C(=O)N[C@@H](C)C(=O)N[C@@H]([C@@H](C)O)C(=O)N1)[C@@H](C)O)C(=O)N[C@@H](CC(C)C)C(=O)N1CCC[C@H]1C(=O)N1CCC[C@H]1C(=O)N[C@H](C(=O)N[C@@H](CC(N)=O)C(=O)N[C@H](C(=O)NCC(=O)N[C@@H](CO)C(=O)N[C@@H](CC(N)=O)C(=O)N[C@H](C(=O)N[C@@H](Cc1ccc(O)cc1)C(N)=O)[C@@H](C)O)C(C)C)[C@@H](C)O` [Example 60, N-alpha-[(S)-4-Carboxy-4-(17-carboxyheptadecanoylamino)butyryl]-His-His-[His1,His17]-pramlintide] ({C18 diacid-γGlu}-HHHCNTATCATQRLANFLHHSSNNFGPILPPTNVGSNTY-NH2; disulfide 4-9), the EC50 was found to be 0.05 nM. As for `CC[C@H](C)[C@H](NC(=O)[C@@H]1CCCN1C(=O)CNC(=O)[C@H](Cc1ccccc1)NC(=O)[C@H](CC(N)=O)NC(=O)[C@H](CC(N)=O)NC(=O)[C@H](CO)NC(=O)[C@H](CO)NC(=O)[C@H](Cc1c[nH]cn1)NC(=O)[C@H](Cc1c[nH]cn1)NC(=O)[C@H](CC(C)C)NC(=O)[C@H](Cc1ccccc1)NC(=O)[C@H](CC(N)=O)NC(=O)[C@H](C)NC(=O)[C@H](CC(C)C)NC(=O)[C@H](CCCNC(=N)N)NC(=O)[C@H](CCC(N)=O)NC(=O)[C@@H](NC(=O)[C@H](C)NC(=O)[C@@H]1CSSC[C@H](NC(=O)[C@H](Cc2c[nH]cn2)NC(=O)[C@H](Cc2c[nH]cn2)NC(=O)[C@H](Cc2c[nH]cn2)NC(=O)CC[C@H](NC(=O)CCCCC(=O)O)C(=O)O)C(=O)N[C@@H](CC(N)=O)C(=O)N[C@@H]([C@@H](C)O)C(=O)N[C@@H](C)C(=O)N[C@@H]([C@@H](C)O)C(=O)N1)[C@@H](C)O)C(=O)N[C@@H](CC(C)C)C(=O)N1CCC[C@H]1C(=O)N1CCC[C@H]1C(=O)N[C@H](C(=O)N[C@@H](CC(N)=O)C(=O)N[C@H](C(=O)NCC(=O)N[C@@H](CO)C(=O)N[C@@H](CC(N)=O)C(=O)N[C@H](C(=O)N[C@@H](Cc1ccc(O)cc1)C(N)=O)[C@@H](C)O)C(C)C)[C@@H](C)O` [Example 61, N-alpha-[(S)-4-Carboxy-4-(5-carboxypentanoylamino)butyryl]-His-His-[His1,His17]-pramlintide] ({Adipoyl-γGlu}-HHHCNTATCATQRLANFLHHSSNNFGPILPPTNVGSNTY-NH2; disulfide 4-9), the EC50 came to 0.04 nM.
